Key:
[1] = system: HepG2 (ATCC HB-8065) cells; assay: Cytotoxicity, MTT viability assay, HepG2; type: cell-based
Protocol: (§1) Cellular cytotoxicity was assessed using an MTT viability assay. HepG2 (ATCC HB-8065) cells were seeded at 1×10^4 cells/well in 96 well plates over night at 37 °C in DMEM supplemented with 10% FBS before use. Compounds were serially diluted with 2-fold dilution in culture media to afford a concentration ranging from 8 to 1024 μg/mL. After 24 h incubation, 10 μL of a 5 mg/mL solution of MTT was added to each well. After incubation for 2-4 h, upon discard of previous media, 100 μL of DMSO as solubilizing solution was added to each well, and absorbance at 570 nm were measured on a plate reader. Percent viability was determined by dividing background-corrected absorbance measurements by background corrected measurements for untreated cells. The lowest concentration for which percent viability was less than 50% was deemed the cytotoxicity IC50.

[2] = Cytotoxicity, MTT viability assay, HepG2; type: cell-based; details: human, hepg2 cells; HepG2, MTT, 24 h incubation, 8 to 1024 μg/mL; lowest concentration with viability less than 50%; read-out: Cytotoxicity (IC50)
Protocol: as §1

[3] = system: Klebsiella pneumoniae (KPN) ATCC 700603; assay: Susceptibility test (MIC), broth dilution, Klebsiella pneumoniae; type: cell-based; details: ATCC700603, Klebsiella pneumoniae ATCC 700603, 14-20 hour incubation, read-out: Minimum Inhibitory Concentration
Protocol: (§2) The minimum inhibitory concentration (MIC) was determined according to the Clinical and Laboratory Standards Institute (CLSI) guidelines by broth dilution. Bacteria were cultured in an appropriate medium (such as Cation-Adjusted Muller Hinton Broth) for 6-12 hours and diluted into same medium containing 2-fold serial dilutions of antibiotics. MIC values were derived after 14-20 hour incubation, and were the result of at least 3 independent determinations. The MIC study included Gram-negative strains Salmonella enterica Typhimurium (ST) ATCC 14028, E. coli (EC) ATCC 25922, Pseudomonas aeruginosa (PA) ATCC 27853, and Klebsiella pneumoniae (KPN) ATCC 700603 and Gram-positive strain S. aureus (SA) ATCC 259213.

[4] = system: all tested bacterial strains; assay: Susceptibility test, comparison over all tested bacterial strains; type: cell-based, Gram-positive and Gram-negative bacteria
Protocol: as §2

[5] = system: Salmonella enterica Typhimurium (ST) ATCC 14028; assay: Susceptibility test (MIC), broth dilution, Salmonella enterica Typhimurium; type: cell-based; details: Salmonella enterica Typhimurium ATCC 14028, 14-20 hour incubation, read-out: Minimum Inhibitory Concentration
Protocol: as §2

[6] = system: Pseudomonas aeruginosa (PA) ATCC 27853; assay: Susceptibility test (MIC), broth dilution, Pseudomonas aeruginosa; type: cell-based; details: ATCC27853, Pseudomonas aeruginosa ATCC 27853, 14-20 hour incubation, read-out: Minimum Inhibitory Concentration
Protocol: as §2

[7] = Hydrophobicity (comparison; RP-HPLC retention times in Table 1); type: physicochemical
Source text: The MIC and cytotoxicity results for previously-described quaternary ammonium COEs COE2-3C, COE2-3C-C4butyl, and COE2-3C-C4hexyl are consistent with previous data (See Limwongyut et al., Chem. Sci. (2020) 11 (31): 8138-8144).

E. coli (EC) ATCC 25922 = assay: Susceptibility test (MIC), broth dilution, E. coli; type: cell-based; details: Escherichia coli, ATCC25922, E. coli ATCC 25922, 14-20 hour incubation, read-out: Minimum Inhibitory Concentration
Protocol: as §2

[8] = system: S. aureus (SA) ATCC 259213; assay: Susceptibility test (MIC), broth dilution, S. aureus; type: cell-based; details: Staphylococcus aureus, ATCC259213, read-out: Minimum Inhibitory Concentration
Protocol: as §2

[9] = Formula K and Formula A compared with each other
[10] = Formula A compared with COE2-3C and COE2-3C-C4butyl
[11] = Formula C and Formula K compared with each other
[12] = Formula C compared with COE2-3C-C4butyl

Row | Compound | cytotoxicity (comparison) [1, 9] | CC50 at 24 h [2] [µg/mL] | MIC [3] [µg/mL] | activity against all tested bacterial strains [4, 10] | activity against all tested bacterial strains ([4]; Formula A compared with Formula K) | MIC [5] [µg/mL] | MIC [6] [µg/mL] | hydrophobicity (comparison) [7, 10] | MIC (E. coli (EC) ATCC 25922) [µg/mL] | MIC [8] [µg/mL] | cytotoxicity (comparison) [1, 11] | cytotoxicity (comparison) [1, 12] | activity against all tested bacterial strains [4, 11] | activity against all tested bacterial strains [4, 12] | hydrophobicity (comparison) [7, 11]
1 | N=C(NCCCOc1cc(/C=C/c2ccc(/C=C/c3cc(OCCCNC(=N)C4CC4)cc(OCCCNC(=N)C4CC4)c3)cc2)cc(OCCCNC(=N)C2CC2)c1)C1CC1 [Formula A] | similar | > 1020 | 4 | considerably higher activity against all tested bacterial strains | more active against all tested bacterial strains | 1 | 2 | intermediate hydrophobicity | 1 | 0.5 |  |  |  |  | 
2 | CN(CCCOc1cc(/C=C/c2ccc(/C=C/c3cc(OCCCN(C)C(=N)C4CC4)cc(OCCCN(C)C(=N)C4CC4)c3)cc2)cc(OCCCN(C)C(=N)C2CC2)c1)C(=N)C1CC1 [Formula B] |  | 1020 | 8 |  |  | 1 | 8 |  | 1 | 1 |  |  |  |  | 
3 | CCCN(CCCOc1cc(/C=C/c2ccc(/C=C/c3cc(OCCCN(CCC)C(=N)C4CC4)cc(OCCCN(CCC)C(=N)C4CC4)c3)cc2)cc(OCCCN(CCC)C(=N)C2CC2)c1)C(=N)C1CC1 [Formula C] |  | 16 | 8 |  |  | 2 | 32 |  | 2 | 1 | different cytotoxicity | similar | identical activities against all tested bacterial strains | more active against all tested bacterial strains | different
4 | CCC(=N)N(C)CCCOc1cc(/C=C/c2ccc(/C=C/c3cc(OCCCN(C)C(=N)CC)cc(OCCCN(C)C(=N)CC)c3)cc2)cc(OCCCN(C)C(=N)CC)c1 [Formula D] |  | > 1020 | 16 |  |  | 2 | 8 |  | 1 | 1 |  |  |  |  | 
5 | CCC(=N)N(CCCOc1cc(/C=C/c2ccc(/C=C/c3cc(OCCCN(C(=N)CC)C4CC4)cc(OCCCN(C(=N)CC)C4CC4)c3)cc2)cc(OCCCN(C(=N)CC)C2CC2)c1)C1CC1 [Formula E] |  | 128 | 8 |  |  | 2 | 16 |  | 2 | 1 |  |  |  |  | 
6 | CCCN(CCCOc1cc(/C=C/c2ccc(/C=C/c3cc(OCCCN(CCC)C(=N)CC)cc(OCCCN(CCC)C(=N)CC)c3)cc2)cc(OCCCN(CCC)C(=N)CC)c1)C(=N)CC [Formula F] |  | 32 | 8 |  |  | 2 | 16 |  | 2 | 1 |  |  |  |  | 
7 | N=C(CC1CC1)NCCCOc1cc(/C=C/c2ccc(/C=C/c3cc(OCCCNC(=N)CC4CC4)cc(OCCCNC(=N)CC4CC4)c3)cc2)cc(OCCCNC(=N)CC2CC2)c1 [Formula G] |  | 256 | 4 |  |  | 2 | 8 |  | 2 | 1 |  |  |  |  | 
8 | C/N=C(\C)NCCCOc1cc(/C=C/c2ccc(/C=C/c3cc(OCCCN/C(C)=N/C)cc(OCCCN/C(C)=N/C)c3)cc2)cc(OCCCN/C(C)=N/C)c1 [Formula H] |  | > 1020 | 16 |  |  | 2 | 32 |  | 2 | 1 |  |  |  |  | 
9 | C(=C\c1cc(OCCCNC2=NCCC2)cc(OCCCNC2=NCCC2)c1)/c1ccc(/C=C/c2cc(OCCCNC3=NCCC3)cc(OCCCNC3=NCCC3)c2)cc1 [Formula J] |  | 1020 | 16 |  |  | 2 | 16 |  | 1 | 1 |  |  |  |  | 
10 | C/C(=N\C1CC1)NCCCOc1cc(/C=C/c2ccc(/C=C/c3cc(OCCCN/C(C)=N/C4CC4)cc(OCCCN/C(C)=N/C4CC4)c3)cc2)cc(OCCCN/C(C)=N/C2CC2)c1 [Formula K] | similar | > 1020 | 8 |  |  | 2 | 32 |  | 2 | 1 | different cytotoxicity |  | identical activities against all tested bacterial strains |  | different

Source: US20260374731A1, “ANTIMICROBIAL CONJUGATED OLIGOELECTROLYTES AS BROAD-SPECTRUM ANTIBIOTICS” (The Regents of the University of California, priority 2023, published 2026)
